Drawing on patent US8357707B2, “2-carboxamide cycloamino ureas” (Novartis AG, priority 2009, dated 2013), this text covers IC50 for 21 compounds.

Format in all cases: biochemical
One assay deals with T1, PI3Kγ (Homo sapiens, UniProt P48736, Q459R).
T1 construct: Constructs lacking the N-terminal 144 aa; His tag (C); made in house; host or cells: Tn5 insect cells, baculovirus BV950; construct from the Roger Williams lab (MRC LMB)
Nature of the assay: PI3K KinaseGlo assay, PI3Kgamma. The settings on record: 150 nM enzyme, 1 μM ATP, 90 mins.

A further assay concerns the target T2, PI3Kδ (Homo sapiens, UniProt O00329).
T2 construct: His tag (C); made in house; host or cells: Tn5 insect cells, baculovirus BV1060 (vector LR415)
In words: PI3K KinaseGlo assay, PI3Kdelta. Conditions: 10 nM enzyme, 1 μM ATP, 30 mins. (In general: Kinase-Glo measures the ATP left after a reaction by luminescence.)

The target in the next assay is T3, PI3Kβ (Homo sapiens, UniProt P42338).
T3 construct: His tag (C); made in house; host or cells: Tn5 insect cells, baculovirus BV949 (vector LR280)
T3 sequence (P42338 with tags, fused parts or gaps): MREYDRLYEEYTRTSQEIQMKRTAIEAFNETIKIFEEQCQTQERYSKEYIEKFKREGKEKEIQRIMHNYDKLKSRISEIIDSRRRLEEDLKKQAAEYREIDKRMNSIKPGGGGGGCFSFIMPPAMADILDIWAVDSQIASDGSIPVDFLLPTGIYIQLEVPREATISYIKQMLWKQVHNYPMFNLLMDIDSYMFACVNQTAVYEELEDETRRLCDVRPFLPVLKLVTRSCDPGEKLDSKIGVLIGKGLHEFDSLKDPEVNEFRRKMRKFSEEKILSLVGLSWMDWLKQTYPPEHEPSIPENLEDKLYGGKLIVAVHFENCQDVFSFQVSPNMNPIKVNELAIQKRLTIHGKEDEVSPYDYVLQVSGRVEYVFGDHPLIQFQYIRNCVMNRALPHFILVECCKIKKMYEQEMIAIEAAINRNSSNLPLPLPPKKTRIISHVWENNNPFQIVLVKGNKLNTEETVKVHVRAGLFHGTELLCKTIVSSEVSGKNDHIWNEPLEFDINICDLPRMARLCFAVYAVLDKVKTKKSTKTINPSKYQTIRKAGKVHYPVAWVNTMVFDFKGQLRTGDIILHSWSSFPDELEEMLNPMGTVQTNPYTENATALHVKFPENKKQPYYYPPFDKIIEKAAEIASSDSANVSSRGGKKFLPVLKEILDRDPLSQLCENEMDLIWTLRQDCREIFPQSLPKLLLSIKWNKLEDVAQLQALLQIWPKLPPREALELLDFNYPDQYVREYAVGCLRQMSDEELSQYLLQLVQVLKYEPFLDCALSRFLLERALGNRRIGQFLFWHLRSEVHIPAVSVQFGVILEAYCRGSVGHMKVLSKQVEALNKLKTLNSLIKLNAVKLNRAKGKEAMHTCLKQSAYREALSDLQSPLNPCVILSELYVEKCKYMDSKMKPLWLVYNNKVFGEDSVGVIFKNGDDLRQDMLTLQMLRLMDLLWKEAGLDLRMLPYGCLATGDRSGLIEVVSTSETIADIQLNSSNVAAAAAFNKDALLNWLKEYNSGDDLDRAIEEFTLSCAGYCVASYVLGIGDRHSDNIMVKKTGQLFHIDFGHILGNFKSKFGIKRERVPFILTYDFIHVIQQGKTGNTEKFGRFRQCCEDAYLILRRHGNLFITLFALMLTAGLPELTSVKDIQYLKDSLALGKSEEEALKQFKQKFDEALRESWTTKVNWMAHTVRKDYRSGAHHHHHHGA
In words: PI3K KinaseGlo assay, PI3Kbeta. The settings on record: 25 nM enzyme, 1 μM ATP, 30 mins.

In another assay the target is T4, PI3Kα (Homo sapiens, UniProt P42336).
T4 construct: His tag (C); made in house; host or cells: Tn5 insect cells, baculovirus BV-1075
T4 sequence (P42336 with tags, fused parts or gaps): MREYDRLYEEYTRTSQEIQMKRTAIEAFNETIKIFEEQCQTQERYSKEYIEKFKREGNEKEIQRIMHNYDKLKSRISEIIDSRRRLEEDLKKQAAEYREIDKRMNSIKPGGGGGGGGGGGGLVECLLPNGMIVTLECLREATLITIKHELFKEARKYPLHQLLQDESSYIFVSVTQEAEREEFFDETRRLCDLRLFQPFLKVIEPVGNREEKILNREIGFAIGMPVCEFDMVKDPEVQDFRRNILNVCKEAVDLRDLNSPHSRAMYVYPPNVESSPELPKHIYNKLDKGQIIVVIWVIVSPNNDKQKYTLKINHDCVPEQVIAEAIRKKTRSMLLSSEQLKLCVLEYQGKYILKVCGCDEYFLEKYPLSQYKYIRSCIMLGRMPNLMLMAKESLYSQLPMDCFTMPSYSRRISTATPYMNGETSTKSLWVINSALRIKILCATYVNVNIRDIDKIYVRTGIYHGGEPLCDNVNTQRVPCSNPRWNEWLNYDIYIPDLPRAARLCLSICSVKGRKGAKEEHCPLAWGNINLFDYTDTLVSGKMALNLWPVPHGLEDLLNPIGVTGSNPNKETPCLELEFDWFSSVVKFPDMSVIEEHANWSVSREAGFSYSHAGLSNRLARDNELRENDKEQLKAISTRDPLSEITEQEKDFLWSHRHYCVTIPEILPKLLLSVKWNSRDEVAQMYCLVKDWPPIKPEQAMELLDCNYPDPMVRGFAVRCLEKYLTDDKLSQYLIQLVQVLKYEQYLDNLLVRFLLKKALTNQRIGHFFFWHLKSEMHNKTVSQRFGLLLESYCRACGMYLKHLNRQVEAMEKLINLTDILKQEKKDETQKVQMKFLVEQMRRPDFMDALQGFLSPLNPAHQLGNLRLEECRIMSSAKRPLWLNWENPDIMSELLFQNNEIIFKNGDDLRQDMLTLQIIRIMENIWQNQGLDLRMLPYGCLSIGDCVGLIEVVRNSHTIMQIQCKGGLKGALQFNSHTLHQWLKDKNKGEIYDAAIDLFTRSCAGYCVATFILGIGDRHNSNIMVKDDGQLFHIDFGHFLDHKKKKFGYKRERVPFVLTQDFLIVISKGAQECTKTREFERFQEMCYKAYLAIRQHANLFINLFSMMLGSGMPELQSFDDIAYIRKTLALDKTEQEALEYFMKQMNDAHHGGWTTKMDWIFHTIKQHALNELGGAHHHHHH
In words: PI3K KinaseGlo assay, PI3Kalpha. Conditions: 10 nM enzyme, 1 μM ATP, 30 mins.

As a reminder, the IC50 is the point on the concentration scale where inhibition reaches its midpoint.

Bounds are passed on as bounds.

T2 sequence (O00329 with tags, fused parts or gaps): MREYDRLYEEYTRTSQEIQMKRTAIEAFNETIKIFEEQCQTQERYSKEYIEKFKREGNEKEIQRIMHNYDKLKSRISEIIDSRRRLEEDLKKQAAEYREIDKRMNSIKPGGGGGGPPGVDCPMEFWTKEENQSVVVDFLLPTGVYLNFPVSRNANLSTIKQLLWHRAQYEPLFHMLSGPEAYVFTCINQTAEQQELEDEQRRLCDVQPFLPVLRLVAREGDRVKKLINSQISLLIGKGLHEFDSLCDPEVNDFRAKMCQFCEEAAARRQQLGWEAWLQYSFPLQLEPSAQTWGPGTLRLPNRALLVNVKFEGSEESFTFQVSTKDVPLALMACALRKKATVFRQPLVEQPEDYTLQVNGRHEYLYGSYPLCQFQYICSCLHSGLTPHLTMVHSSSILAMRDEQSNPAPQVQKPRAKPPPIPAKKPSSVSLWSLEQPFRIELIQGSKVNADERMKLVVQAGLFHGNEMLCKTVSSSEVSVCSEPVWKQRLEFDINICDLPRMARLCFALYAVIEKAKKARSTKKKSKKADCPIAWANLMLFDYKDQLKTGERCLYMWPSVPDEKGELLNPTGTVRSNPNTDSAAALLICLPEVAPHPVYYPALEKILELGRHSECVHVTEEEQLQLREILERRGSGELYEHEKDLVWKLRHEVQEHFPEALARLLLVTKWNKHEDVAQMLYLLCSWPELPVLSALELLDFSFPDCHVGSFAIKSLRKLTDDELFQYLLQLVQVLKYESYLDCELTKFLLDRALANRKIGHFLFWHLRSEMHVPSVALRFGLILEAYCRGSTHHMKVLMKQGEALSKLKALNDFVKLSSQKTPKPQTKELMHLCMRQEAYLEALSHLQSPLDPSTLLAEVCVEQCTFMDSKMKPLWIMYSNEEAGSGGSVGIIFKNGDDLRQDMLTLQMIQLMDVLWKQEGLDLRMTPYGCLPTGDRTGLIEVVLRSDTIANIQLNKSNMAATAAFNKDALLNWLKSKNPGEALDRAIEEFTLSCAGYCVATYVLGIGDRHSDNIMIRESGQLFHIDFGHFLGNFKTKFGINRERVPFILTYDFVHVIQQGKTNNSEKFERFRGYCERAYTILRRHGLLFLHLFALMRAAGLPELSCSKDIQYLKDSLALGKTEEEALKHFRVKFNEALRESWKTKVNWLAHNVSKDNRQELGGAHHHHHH
T1 sequence (P48736 with tags, fused parts or gaps Q459R): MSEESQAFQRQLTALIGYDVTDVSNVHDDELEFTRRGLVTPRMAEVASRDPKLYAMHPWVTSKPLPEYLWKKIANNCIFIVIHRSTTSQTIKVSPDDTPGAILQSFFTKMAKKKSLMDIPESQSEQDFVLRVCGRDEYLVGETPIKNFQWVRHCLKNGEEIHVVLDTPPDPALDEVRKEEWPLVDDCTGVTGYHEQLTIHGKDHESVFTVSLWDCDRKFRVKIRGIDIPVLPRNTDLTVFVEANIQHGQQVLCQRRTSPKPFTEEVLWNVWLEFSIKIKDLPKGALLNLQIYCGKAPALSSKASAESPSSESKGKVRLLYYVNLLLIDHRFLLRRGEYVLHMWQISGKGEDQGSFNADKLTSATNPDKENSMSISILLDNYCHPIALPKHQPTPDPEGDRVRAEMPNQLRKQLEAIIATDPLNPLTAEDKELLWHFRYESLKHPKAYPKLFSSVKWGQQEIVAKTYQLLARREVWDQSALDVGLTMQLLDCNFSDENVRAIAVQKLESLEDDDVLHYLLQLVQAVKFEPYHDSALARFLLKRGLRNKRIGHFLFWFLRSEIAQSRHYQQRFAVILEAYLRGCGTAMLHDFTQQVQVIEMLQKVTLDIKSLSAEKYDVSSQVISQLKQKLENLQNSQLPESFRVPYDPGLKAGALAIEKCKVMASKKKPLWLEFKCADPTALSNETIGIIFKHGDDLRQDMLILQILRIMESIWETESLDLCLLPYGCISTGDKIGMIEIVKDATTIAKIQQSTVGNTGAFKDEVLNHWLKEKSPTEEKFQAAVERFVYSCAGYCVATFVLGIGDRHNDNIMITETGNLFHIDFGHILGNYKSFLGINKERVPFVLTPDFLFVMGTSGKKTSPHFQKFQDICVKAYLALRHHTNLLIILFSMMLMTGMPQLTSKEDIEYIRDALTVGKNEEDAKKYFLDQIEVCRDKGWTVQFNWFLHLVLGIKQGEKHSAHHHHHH

As for `CCN(CC)c1ncc2c(n1)-c1sc(NC(=O)N3CC[C@H](C)[C@H]3C(N)=O)nc1CC2` [Example 2, (2S,3S)-3-Methyl-pyrrolidine-1,2-dicarboxylic acid 2-amide 1-[(8-diethylamino-4,5-dihydro-thiazolo[4,5-h]quinazolin-2-yl)-amide]], the half-maximal inhibitory concentration (IC50) on PI3Kγ came out at 90 nM; at PI3Kδ, 30 nM; against PI3Kβ it was 332 nM; against PI3Kα, 5.5 nM.

In the case of `CCN(CC)c1ncc2c(n1)-c1sc(NC(=O)N3CCC[C@@]3(C)C(N)=O)nc1CC2` [Example 4, (S)-2-Methyl-pyrrolidine-1,2-dicarboxylic acid 2-amide 1-[(8-diethylamino-4,5-dihydro-thiazolo[4,5-h]quinazolin-2-yl)-amide]], the IC50 was determined as 176 nM against PI3Kγ, 220 nM on PI3Kδ, 143 nM against PI3Kβ and 6.5 nM at PI3Kα.

On to `CCN(CC)c1ncc2c(n1)-c1sc(NC(=O)N3CCC[C@@]3(COC)C(N)=O)nc1CC2` [Example 5, (R)-2-Methoxymethyl-pyrrolidine-1,2-dicarboxylic acid 2-amide 1-[(8-diethylamino-4,5-dihydro-thiazolo[4,5-h]quinazolin-2-yl)-amide]], for which the IC50 against PI3Kγ came to 153 nM; against PI3Kδ, 46 nM; against PI3Kβ, 47 nM; on PI3Kα, 5.5 nM.

`CCN(CC)c1ncc2c(n1)-c1sc(NC(=O)N3CCC[C@@]3(CO)C(N)=O)nc1CC2` [Example 8, (R)-2-Hydroxymethyl-pyrrolidine-1,2-dicarboxylic acid 2-amide 1-[(8-diethylamino-4,5-dihydro-thiazolo[4,5-h]quinazolin-2-yl)-amide]]: the 50% inhibitory concentration (IC50) was 180 nM at PI3Kγ, 198 nM against PI3Kδ, 276 nM against PI3Kβ and 9.5 nM at PI3Kα.

As for `CC(C)(C)c1ncc2c(n1)-c1sc(NC(=O)N3CCC[C@@]3(CO)C(N)=O)nc1CC2` [Example 9, (R)-2-Hydroxymethyl-pyrrolidine-1,2-dicarboxylic acid 2-amide 1-[(8-tert-butyl-4,5-dihydro-thiazolo[4,5-h]quinazolin-2-yl)-amide]], the IC50 was 141 nM on PI3Kγ, 72 nM against PI3Kδ, 87 nM against PI3Kβ and 8.5 nM on PI3Kα.

Take `CN(Cc1cccc(F)c1)C[C@@]1(C(N)=O)CCCN1C(=O)Nc1nc2c(s1)-c1nc(C(C)(C)C)ncc1CC2` [Example 10, (R)-2-{[(3-Fluoro-benzyl)-methyl-amino]-methyl}-pyrrolidine-1,2-dicarboxylic acid 2-amide 1-[(8-tert-butyl-4,5-dihydro-thiazolo[4,5-h]quinazolin-2-yl)-amide]]: the half-inhibitory concentration (IC50) amounted to 282 nM at PI3Kγ, 54 nM at PI3Kδ, 449 nM on PI3Kβ and 18 nM on PI3Kα.

For `CCN(CC)c1ncc2c(n1)-c1sc(NC(=O)N3CCC[C@H]3C(N)=O)nc1CC2` [Example 12, (S)-Pyrrolidine-1,2-dicarboxylic acid 2-amide 1-[(8-diethylamino-4,5-dihydro-thiazolo[4,5-h]quinazolin-2-yl)-amide]], the half-maximal inhibitory concentration (IC50) was 230 nM on PI3Kγ, 53 nM at PI3Kδ, 516 nM against PI3Kβ and 6 nM at PI3Kα.

With `CCN(CC)c1ncc2c(n1)-c1sc(NC(=O)N3CC[C@H]3C(N)=O)nc1CC2` [Example 13, (S)-Azetidine-1,2-dicarboxylic acid 2-amide 1-[(8-diethylamino-4,5-dihydro-thiazolo[4,5-h]quinazolin-2-yl)-amide]], the IC50 on PI3Kγ stood at 104 nM; against PI3Kδ, 118 nM; against PI3Kβ, 277 nM; against PI3Kα, 9 nM.

With `CCN(CC)c1ncc2c(n1)-c1sc(NC(=O)N3C[C@H](F)C[C@H]3C(N)=O)nc1CC2` [Example 16, (2S,4R)-4-Fluoro-pyrrolidine-1,2-dicarboxylic acid 2-amide 1-[(8-diethylamino-4,5-dihydro-thiazolo[4,5-h]quinazolin-2-yl)-amide]], the IC50 came to 74 nM against PI3Kγ, 60 nM against PI3Kδ, 297 nM on PI3Kβ and 5.5 nM against PI3Kα.

In the case of `CCN(CC)c1ncc2c(n1)-c1sc(NC(=O)N3C[C@@H](F)C[C@H]3C(N)=O)nc1CC2` [Example 17, (2S,4S)-4-Fluoro-pyrrolidine-1,2-dicarboxylic acid 2-amide 1-[(8-diethylamino-4,5-dihydro-thiazolo[4,5-h]quinazolin-2-yl)-amide]], the IC50 against PI3Kγ is 153 nM; against PI3Kδ, 236 nM; on PI3Kβ, 389 nM; against PI3Kα it was 8 nM.

In the case of `CCN(CC)c1ncc2c(n1)-c1sc(NC(=O)N3CC[C@@H]4C[C@@]43C(N)=O)nc1CC2` [Example 19, (1S,5R)-2-Aza-bicyclo[3.1.0]hexane-1,2-dicarboxylic acid 1-amide 2-[(8-diethylamino-4,5-dihydro-thiazolo[4,5-h]quinazolin-2-yl)-amide]], the half-inhibitory concentration (IC50) is 123 nM on PI3Kγ, 77 nM against PI3Kδ, 588 nM against PI3Kβ and 5.5 nM against PI3Kα.

In the case of `CCN(CC)c1ncc2c(n1)-c1sc(NC(=O)N3CC[C@@H](C)[C@H]3C(N)=O)nc1CC2` [Example 21, (2S,3R)-3-Methyl-pyrrolidine-1,2-dicarboxylic acid 2-amide 1-[(8-diethylamino-4,5-dihydro-thiazolo[4,5-h]quinazolin-2-yl)-amide]], the concentration for half-maximal inhibition (IC50) against PI3Kγ is 237 nM; against PI3Kδ, 36 nM; on PI3Kβ it was 519 nM; against PI3Kα, under 3 nM.

In the case of `CCN(CC)c1ncc2c(n1)-c1sc(NC(=O)N3C[C@@H](N(C)C)C[C@H]3C(N)=O)nc1CC2` [Example 22, (2S,4S)-4-Dimethylamino-pyrrolidine-1,2-dicarboxylic acid 2-amide 1-[(8-diethylamino-4,5-dihydro-thiazolo[4,5-h]quinazolin-2-yl)-amide]], the 50% inhibitory concentration (IC50) stood at 262 nM at PI3Kγ, 1900 nM against PI3Kδ, 6900 nM at PI3Kβ and 23.5 nM on PI3Kα.

`CC(C)(C)c1ncc2c(n1)-c1sc(NC(=O)N3CCC3C(N)=O)nc1CC2` (centres unmarked) [Example 24, Azetidine-1,2-dicarboxylic acid 2-amide 1-[(8-tert-butyl-4,5-dihydro-thiazolo[4,5-h]quinazolin-2-yl)-amide]]: the concentration for half-maximal inhibition (IC50) was 98 nM against PI3Kγ, 24 nM on PI3Kδ, 135 nM against PI3Kβ and 7 nM on PI3Kα.

Regarding `CC(C)(C)c1ncc2c(n1)-c1sc(NC(=O)N3CC[C@H]3C(N)=O)nc1CC2` [Example 25, (S)-Azetidine-1,2-dicarboxylic acid 2-amide 1-[(8-tert-butyl-4,5-dihydro-thiazolo[4,5-h]quinazolin-2-yl)-amide]], the half-inhibitory concentration (IC50) worked out at 122 nM against PI3Kγ, 45 nM against PI3Kδ, 346 nM against PI3Kβ and 5.5 nM at PI3Kα.

On to `CCN(CC)c1ncc2c(n1)-c1sc(NC(=O)N3C[C@@H](O)C[C@H]3C(N)=O)nc1CC2` [Example 26, (2S,4S)-4-Hydroxy-pyrrolidine-1,2-dicarboxylic acid 2-amide 1-[(8-diethylamino-4,5-dihydro-thiazolo[4,5-h]quinazolin-2-yl)-amide]], for which the IC50 against PI3Kγ came out at 138 nM; on PI3Kδ, 58 nM; at PI3Kβ, 328 nM; against PI3Kα it was 6.5 nM.

For the compound `CCN(CC)c1ncc2c(n1)-c1sc(NC(=O)N3C[C@H](O)C[C@H]3C(N)=O)nc1CC2` [Example 27, (2S,4R)-4-Hydroxy-pyrrolidine-1,2-dicarboxylic acid 2-amide 1-[(8-diethylamino-4,5-dihydro-thiazolo[4,5-h]quinazolin-2-yl)-amide]], the IC50 stood at 97 nM against PI3Kγ, 72 nM against PI3Kδ, 397 nM on PI3Kβ and 4.5 nM against PI3Kα.

Take `CC(C)(C)c1nc2c(s1)CCc1nc(NC(=O)N3CC[C@H]3C(N)=O)sc1-2` [Example 30, (S)-Azetidine-1,2-dicarboxylic acid 2-amide 1-[(7-tert-butyl-4,5-dihydro-benzo[1,2-d;3,4-d′]bisthiazol-2-yl)-amide]]: the concentration for half-maximal inhibition (IC50) against PI3Kγ is 119 nM; on PI3Kδ, 294 nM; at PI3Kβ it was 2140 nM; against PI3Kα, 23 nM.

As for `CN(C)[C@@H]1C[C@@H](C(N)=O)N(C(=O)Nc2nc3c(s2)-c2nc(C(C)(C)C)sc2CC3)C1` [Example 31, (2S,4R)-4-Dimethylamino-pyrrolidine-1,2-dicarboxylic acid 2-amide 1-[(7-tert-butyl-4,5-dihydro-benzo[1,2-d;3,4-d′]bisthiazol-2-yl)-amide]], the IC50 turned out to be 1230 nM at PI3Kγ, 1940 nM on PI3Kδ, 5820 nM on PI3Kβ and 51.5 nM against PI3Kα.

For the compound `CC(C)(CF)c1nc2c(s1)CCc1nc(NC(=O)N3CCC[C@H]3C(N)=O)sc1-2` [Example 32, (S)-Pyrrolidine-1,2-dicarboxylic acid 2-amide 1-{[7-(2-fluoro-1,1-dimethyl-ethyl)-4,5-dihydro-benzo[1,2-d;3,4-d′]bisthiazol-2-yl]-amide}], the IC50 stood at 131 nM against PI3Kγ, 43 nM on PI3Kδ, 1090 nM at PI3Kβ and 7 nM at PI3Kα.

As to `COC[C@@H]1CCN(C(=O)Nc2nc3c(s2)-c2nc(C(C)(C)C(F)(F)F)sc2CC3)[C@@H]1C(N)=O` [Example 50, (2S,3R)-3-Methoxymethyl-pyrrolidine-1,2-dicarboxylic acid 2-amide 1-{[7-(2,2,2-trifluoro-1,1-dimethyl-ethyl)-4,5-dihydro-benzo[1,2-d;3,4-d′]bisthiazol-2-yl]-amide}], the half-maximal inhibitory concentration (IC50) against PI3Kδ stood at 113 nM; on PI3Kβ, 555 nM; on PI3Kα it was 9 nM.
